Measurements reported in PMC4757417, “Functional and Structural Analysis of a β-Glucosidase Involved in β-1,2-Glucan Metabolism in Listeria innocua” (PLoS ONE, 2016).
Read-outs that look alike come from different tables or passages of the source. Blank lines part the entries; values can stand above or below the compound they belong to.

Experiments:
[1] = target: T1, Lin1840r (Listeria innocua, UniProt Q92AS9); test: Inhibition kinetics of hydrolytic activity toward pNP-β-Glc; assay type: biochemical; settings: substrate pNP-β-Glc
T1 sequence (Q92AS9 entry or part of it): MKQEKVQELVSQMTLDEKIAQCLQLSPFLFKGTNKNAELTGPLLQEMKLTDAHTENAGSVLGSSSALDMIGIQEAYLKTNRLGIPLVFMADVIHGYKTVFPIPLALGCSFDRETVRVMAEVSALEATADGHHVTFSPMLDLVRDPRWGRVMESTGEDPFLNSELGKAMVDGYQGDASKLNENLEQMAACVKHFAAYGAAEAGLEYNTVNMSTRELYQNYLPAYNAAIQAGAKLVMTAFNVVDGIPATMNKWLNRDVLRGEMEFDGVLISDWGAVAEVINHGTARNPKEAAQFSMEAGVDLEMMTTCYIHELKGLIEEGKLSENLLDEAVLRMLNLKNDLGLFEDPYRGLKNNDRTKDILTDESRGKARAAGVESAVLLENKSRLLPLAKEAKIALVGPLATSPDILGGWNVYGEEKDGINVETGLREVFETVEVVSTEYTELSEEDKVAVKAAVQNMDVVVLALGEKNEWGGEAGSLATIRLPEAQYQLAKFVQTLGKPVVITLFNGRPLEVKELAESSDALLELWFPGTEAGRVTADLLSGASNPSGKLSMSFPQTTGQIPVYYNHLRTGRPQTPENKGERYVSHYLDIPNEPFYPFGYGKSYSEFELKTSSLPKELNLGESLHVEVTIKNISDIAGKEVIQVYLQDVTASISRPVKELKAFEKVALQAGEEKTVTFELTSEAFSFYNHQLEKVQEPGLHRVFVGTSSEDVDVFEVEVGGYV

[2] = target: Aspergillus aculeatus BGL1 (AaBGL1); parameters: method as in PMID 23537284; settings: cited from earlier work
[3] = target: T1, Lin1840r; test: Kinetic analysis of hydrolysis of β-linked gluco-oligosaccharides and pNP-β-Glc by WT Lin1840r; assay type: biochemical; settings: for kcat relative to that for Sop2 / kcat relative to those for Sop2 and Lam2 / kcat/Km relative to that for Sop2: WT Lin1840r; for specific activity: Lin1840r, 0.1 mM substrate at 20°C
[4] = tested on: Lin1840r E473A mutant; test: Hydrolytic activity of E473A mutant toward pNP-β-Glc
[5] = tested on: Lin1840r D270A mutant; test: Hydrolytic activity of D270A mutant toward pNP-β-Glc
[6] = tested on: JMB19063 (metagenomic GH3 β-glucosidase from compost); parameters: method as in PMID 23580647; settings: 0.1 mM substrate, Cel2 at 50°C, estimated from the substrate consumption; cited from earlier work
[7] = tested on: Flavobacterium meningosepticum GH3 β-glucosidase (FmBGL); parameters: method as in PMID 11851422; settings: cited from earlier work

Compound: OC[C@H]1NC[C@H](O)[C@@H](O)[C@@H]1O [DNJ, 1-deoxynojirimycin]
Ki ([1]; Ki): 290 µM | Ki [2]: 2.4 µM

Ki ([1]; read-out: Ki): 4.1 µM
Compound: OC[C@H]1CNC[C@@H](O)[C@@H]1O [IFG, isofagomine D-tartrate]
Ki [2]: 14 µM

Compound: OC[C@H]1O[C@@H](O[C@H]2[C@H](O[C@H]3[C@H](O[C@H]4C(O)O[C@H](CO)[C@@H](O)[C@@H]4O)O[C@H](CO)[C@@H](O)[C@@H]3O)O[C@H](CO)[C@@H](O)[C@@H]2O)[C@H](O)[C@@H](O)[C@@H]1O (stereo partly shown) [Sop4]
kcat relative to that for Sop2 [3]: less than one-tenth

Compound: OC[C@H]1O[C@@H](O[C@H]2[C@H](O[C@H]3[C@H](O[C@H]4[C@H](O[C@H]5C(O)O[C@H](CO)[C@@H](O)[C@@H]5O)O[C@H](CO)[C@@H](O)[C@@H]4O)O[C@H](CO)[C@@H](O)[C@@H]3O)O[C@H](CO)[C@@H](O)[C@@H]2O)[C@H](O)[C@@H](O)[C@@H]1O (stereo partly shown) [Sop5]
kcat relative to that for Sop2 [3]: less than one-tenth

Compound: O=[N+]([O-])c1ccc(O[C@@H]2O[C@H](CO)[C@@H](O)[C@H](O)[C@H]2O)cc1 [pNP-β-Glc, p-nitrophenyl-β-D-glucopyranoside]
hydrolytic activity [4]: no detectable hydrolytic activity | specific activity [3]: 1.12 U/mg | hydrolytic activity [5]: no detectable hydrolytic activity | specific activity [6]: 11.8 U/mg | Km [7]: 490 µM | kcat [7]: 39.1 s⁻¹

Compound: cellobiose [Cel2]
specific activity [3]: 8.9 × 10^−4 U/mg | kcat relative to those for Sop2 and Lam2 [3]: less than 1% | kcat/Km relative to that for Sop2 [3]: less than 0.05% | specific activity [6]: 0.077 U/mg | activity lower than toward pNP-β-Glc ([7]; judged from preliminary results): at least 100 times

kcat relative to those for Sop2 and Lam2 [3]: less than 1% | kcat/Km relative to that for Sop2 [3]: less than 0.05%
Compound: gentiobiose [Gen2]
